Source: patent US20150044346A1, “USE OF OXAZOLINES AS AROMA/FLAVOUR PRECURSORS” (NESTEC S.A., priority 2012, published 2015)
“And” between values parts separate entries of the source, which are not always exact repeats. Identical values can stand only once.

Assays:
Type in all cases: physicochemical
[1] = Release of Strecker aldehyde from 3-oxazoline precursor stirred in water at 37° C. (stable isotope dilution, HS-GC-MS / GC-MS); settings: for isomer I (formed) (mol %) / isomer II (unreacted) (mol %): starting from isomer II; for isomer I (unreacted) (mol %) / isomer II (formed) (mol %): starting from isomer I
[2] = Impact of pH value on release of Strecker aldehyde from 3-oxazoline precursor in buffer solution at 37° C.
Experimental: (§1) 2-(2-Methylpropyl)-5-methyl-3-oxazoline (dissolved in pentane/diethyl ether; 2 mL) was added to ethanol (0.5 mL). The pentane/diethyl ether was carefully evaporated, and finally made up to 5 mL with ethanol. […] A control experiment was performed with 2-(2-methylpropyl)-5-methyl-3-oxazoline and the respective standard without adding the respective buffer solution. For headspace measurements, the samples were directly subjected to HS-GC-MS. For liquid measurements, the samples were cooled in an ice bath and extracted with diethyl ether (3×15 mL; liquid-liquid extraction). The organic phases were combined, dried over anhydrous sodium sulphate, and the solvent was distilled off (20° C., 500 mbar) to about 4 mL. An aliquot (2 μL) was used for the stable isotope dilution assays ((GC-) GC-MS).
as §1, with “2-Methylphenyl-5-methyl-3-oxazoline” for “2-(2-Methylpropyl)-5-methyl-3-oxazoline”, “2-methylphenyl-5-methyl-3-oxazoline” for “2-(2-methylpropyl)-5-methyl-3-oxazoline”

[3] = Headspace GC-MS release of Strecker aldehydes from spiked chocolate on addition of saliva; settings: headspace injection; for Concentration in “release sample” (after addition of saliva): spiked chocolate 2 g + saliva 2 mL, 5 min at 37° C.; for Concentration in blank sample (prior addition of saliva): spiked chocolate 2 g melted at 37° C.
Experimental: To further confirm the PTR-MS data, all experiments are repeated using a headspace GC-MS system. Commercial chocolate (50% of cocoa content) was frozen in liquid nitrogen and ground to a powder using a mixer. An aliquote (25 g) was melted at 35° C. using a water bath and [^2H6]-methylpropanal, [^2H2]-3-methylbutanal as well as [^13C2]-phenylacetaldehyde were added. After stirring for 5 min, the chocolate was cooled to room temperature and used for all further headspace experiments (“spiked chocolate”). The newly spiked chocolate (2 g) was weighed into a headspace vial (10 mL; sealed with a gastight septum) containing a stirring bar. The chocolate was melted at 37° C. for 5 min under stirring. Then, the first injection (1 mL) was done at 37° C. used as blank sample. Afterwards, the sample was cooled to approx. 16° C. After 30 min, saliva (2 mL) was added through the septum via a syringe, and the sample was again warmed to 37° C. under stirring. After a further 5 min, the second injection (1 mL) was done again at 37° C. (“release sample”). All experiments were done in triplicates. 2-Methylbutanal was quantified using [^2H2]-3-methylbutanal.

[4] = PTR-MS release of Strecker aldehydes from spiked chocolate on addition of water or saliva; settings: spiked chocolate 5 g, water (5 mL, pH 4) or saliva (5 mL), 37° C.; FIG. 2, FIG. 3
Experimental: Commercial chocolate (50% of cocoa content) was frozen in liquid nitrogen and ground to a powder using a mixer. An aliquote (50 g) was melted at 35° C. using a water bath and [^2H2]-3-methylbutanal as well as [^13C2]-phenylacetaldehyde were added. After stirring for 5 min, the chocolate was cooled to room temperature and used for all further PTR-MS experiments (“spiked chocolate”).
5.0 g of spiked chocolate was weighed into an iodine flask (200 mL; sealed with a gastight septum) containing a stirring bar. The chocolate was melted at 37° C. for 5 min under stirring. Afterwards, the flask was connected to a PTR-MS instrument via a peek capillary (experiments were done at 37° C.). After defined time (details are given in the respective figures via number of cycles), water (5 mL, pH 4) or saliva (5 mL), respectively, was singly added through the septum via a syringe.
As blank, methylpropanal (2.5 μg), 3-methylbutanal (6.25 μg), phenylacetaldehyde (25 μg), [^2H2]-3-methylbutanal (4.3 μg), and [^13C2]-phenylacetaldehyde (20 μg) were added to sunflower oil (10 g) in an iodine flask (200 mL). Following parameters are used for PTR-MS measurement: inlet temperature 120° C., chamber temperature 80° C., inlet flow 70 mL/min. The mass traces and the dwell time used to monitor Strecker aldehydes are shown below: […]

[5] = 5 min, stirred in water at 37° C.
[6] = 15 min, stirred in water at 37° C.
[7] = 30 min, stirred in water at 37° C.
[8] = Control experiment without addition of water, in relation to amount of precursor used
[9] = Control without addition of water
[10] = Control experiment without addition of water

## CC(C)CC1N=CC(C)O1 (single isomer, unassigned) [2-(2-methylpropyl)-5-methyl-3-oxazoline isomer II, 2-(2-methylpropyl)-5-methyl-3-oxazoline]
[1]; [5]
  3-methylbutanal (mol %) generated from precursor: 72.5 mol %
[1]; 5 min, water 37° C.
  isomer I (formed) (mol %): 3.0 mol %
  isomer II (unreacted) (mol %): 25.7 mol %
[1]; [6]
  3-methylbutanal (mol %) generated from precursor: 81.4 mol %
[1]; 15 min, water 37° C.
  isomer I (formed) (mol %): 3.7 mol %
  isomer II (unreacted) (mol %): 16.7 mol %
[1]; [7]
  3-methylbutanal (mol %) generated from precursor: 92.2 mol %
[1]; 30 min, water 37° C.
  isomer I (formed) (mol %): 2.2 mol %
  isomer II (unreacted) (mol %): 7.2 mol %
[1]; [8]
  3-methylbutanal (mol %) generated from precursor: 0.4 mol %
[1]; [9]
  isomer I (formed) (mol %): 1.7 mol %
  isomer II (unreacted) (mol %): 98.3 mol %

## Cc1ccccc1C1N=CC(C)O1 (centres unmarked) [2-methylphenyl-5-methyl-3-oxazoline]
[2]; pH 5, Control without addition of buffer solution
  phenylacetaldehyde (mol %) generated from precursor: 0.4 mol %
[2]; pH 5 buffer, 5 min, 37° C.
  phenylacetaldehyde (mol %) generated from precursor: 41.2 mol %
[2]; pH 5 buffer, 15 min, 37° C.
  phenylacetaldehyde (mol %) generated from precursor: 72.1 mol %
[2]; pH 5 buffer, 30 min, 37° C.
  phenylacetaldehyde (mol %) generated from precursor: 87.7 mol %
[2]; pH 7, Control without addition of buffer solution
  phenylacetaldehyde (mol %) generated from precursor: 0.3 mol %
[2]; pH 7 buffer, 5 min, 37° C.
  phenylacetaldehyde (mol %) generated from precursor: 7.7 mol %
[2]; pH 7 buffer, 15 min, 37° C.
  phenylacetaldehyde (mol %) generated from precursor: 18.0 mol %
[2]; pH 7 buffer, 30 min, 37° C.
  phenylacetaldehyde (mol %) generated from precursor: 30.2 mol %
[2]; pH 9, Control without addition of buffer solution
  phenylacetaldehyde (mol %) generated from precursor: 0.3 mol %
[2]; pH 9 buffer, 5 min, 37° C.
  phenylacetaldehyde (mol %) generated from precursor: 4.9 mol %
[2]; pH 9 buffer, 15 min, 37° C.
  phenylacetaldehyde (mol %) generated from precursor: 7.1 mol %
[2]; pH 9 buffer, 30 min, 37° C.
  phenylacetaldehyde (mol %) generated from precursor: 14.3 mol %

## CC1C=NC(C(C)C)O1 (single isomer, unassigned) [2-(1-methylethyl)-5-methyl-3-oxazoline]
[1]; [5]
  methylpropanal (mol %) generated from precursor: 46.0 mol %
[1]; [6]
  methylpropanal (mol %) generated from precursor: 53.5 mol %
[1]; [7]
  methylpropanal (mol %) generated from precursor: 56.1 mol %
[1]; [10]
  methylpropanal (mol %) generated from precursor: 0.1 mol %

## O=CCc1ccccc1 [phenylacetaldehyde]
[3]
  Concentration in “release sample” (after addition of saliva): < LoD (due to headspace
  Concentration in blank sample (prior addition of saliva): < LoD (due to headspace
[4]
  release from spiked chocolate after addition of water or saliva (PTR-MS): clearly increased

## CCC(C)C1N=CC(C)O1 (single isomer, unassigned) [2-(1-methylpropyl)-5-methyl-3-oxazoline]
[1]; [5]
  2-methylbutanal (mol %) generated from precursor: 14.6 mol %
[1]; [6]
  2-methylbutanal (mol %) generated from precursor: 33.3 mol %
[1]; [7]
  2-methylbutanal (mol %) generated from precursor: 55.6 mol %
[1]; [10]
  2-methylbutanal (mol %) generated from precursor: 1.1 mol %

## Cc1ccccc1C1N=CC(C)O1 (single isomer, unassigned; isomer i) [2-methylphenyl-5-methyl-3-oxazoline isomer I, 2-methylphenyl-5-methyl-3-oxazoline]
[1]; [5]
  phenylacetaldehyde (mol %) generated from precursor: 16.6 mol %
[1]; 5 min, water 37° C.
  isomer I (unreacted) (mol %): 31.8 mol %
  isomer II (formed) (mol %): 7.1 mol %
[1]; [6]
  phenylacetaldehyde (mol %) generated from precursor: 23.1 mol %
[1]; 15 min, water 37° C.
  isomer I (unreacted) (mol %): 31.1 mol %
  isomer II (formed) (mol %): 6.3 mol %
[1]; [7]
  phenylacetaldehyde (mol %) generated from precursor: 42.5 mol %
[1]; 30 min, water 37° C.
  isomer I (unreacted) (mol %): 22.3 mol %
  isomer II (formed) (mol %): 5.8 mol %
[1]; [10]
  phenylacetaldehyde (mol %) generated from precursor: 0.2 mol %
[1]; [9]
  isomer I (unreacted) (mol %): 98.0 mol %
  isomer II (formed) (mol %): 2.0 mol %
[1]; after 5 min, water 37° C.
  corresponding isomer II formed from purified isomer I: 7%
  phenylacetaldehyde liberated: 17%
[1]; after 15 min, water 37° C.
  phenylacetaldehyde liberated: > 20%
[1]; after 30 min, water 37° C.
  phenylacetaldehyde liberated: > 40% and 43%

## CC(C)CC1N=CC(C)O1 (single isomer, unassigned) [2-(2-methylpropyl)-5-methyl-3-oxazoline isomer I, 2-(2-methylpropyl)-5-methyl-3-oxazoline]
[1]; [5]
  3-methylbutanal (mol %) generated from precursor: 72.7 mol %
[1]; 5 min, water 37° C.
  isomer I (unreacted) (mol %): 16.2 mol %
  isomer II (formed) (mol %): 5.1 mol %
[1]; 5 min after addition of water at 37° C.
  3-methylbutanal released / precursor converted to Strecker aldehyde: 73%
[1]; [6]
  3-methylbutanal (mol %) generated from precursor: 82.4 mol %
[1]; 15 min, water 37° C.
  isomer I (unreacted) (mol %): 8.4 mol %
  isomer II (formed) (mol %): 10.2 mol %
[1]; [7]
  3-methylbutanal (mol %) generated from precursor: 91.1 mol %
[1]; 30 min, water 37° C.
  isomer I (unreacted) (mol %): 2.9 mol %
  isomer II (formed) (mol %): 4.3 mol %
[1]; [8]
  3-methylbutanal (mol %) generated from precursor: 0.3 mol %
[1]; [9]
  isomer I (unreacted) (mol %): 98.1 mol %
  isomer II (formed) (mol %): 1.9 mol %
[1]; after 5 min, water 37° C.
  corresponding isomer II formed from purified isomer I: 5%
[1]; after 15 min, water 37° C.
  3-methylbutanal released: > 80%
[1]; after 30 min, water 37° C.
  3-methylbutanal released: > 90% and 91%

## CCC(C)C=O (centres unmarked) [2-methylbutanal]
[3]
  Concentration in “release sample” (after addition of saliva): 3009 μg/kg of chocolate
  Concentration in blank sample (prior addition of saliva): 354 μg/kg of chocolate
[4]
  release from spiked chocolate after addition of water or saliva (PTR-MS): clearly increased

## Cc1ccccc1C1N=CC(C)O1 (single isomer, unassigned; isomer ii) [2-methylphenyl-5-methyl-3-oxazoline isomer II, 2-methylphenyl-5-methyl-3-oxazoline]
[1]; [5]
  phenylacetaldehyde (mol %) generated from precursor: 17.2 mol %
[1]; 5 min, stirred in water at 37° C., listed as 2-methylphenyl-5-methyl-2-oxazoline isomer II
  phenylacetaldehyde (mol %) generated from precursor: 17.2 mol %
[1]; 5 min, water 37° C.
  isomer I (formed) (mol %): 9.0 mol %
  isomer II (unreacted) (mol %): 28.6 mol %
[1]; [6]
  phenylacetaldehyde (mol %) generated from precursor: 32.2 mol %
[1]; 15 min, stirred in water at 37° C., listed as 2-methylphenyl-5-methyl-2-oxazoline isomer II
  phenylacetaldehyde (mol %) generated from precursor: 32.2 mol %
[1]; 15 min, water 37° C.
  isomer I (formed) (mol %): 5.4 mol %
  isomer II (unreacted) (mol %): 26.0 mol %
[1]; [7]
  phenylacetaldehyde (mol %) generated from precursor: 46.5 mol %
[1]; 30 min, stirred in water at 37° C., listed as 2-methylphenyl-5-methyl-2-oxazoline isomer II
  phenylacetaldehyde (mol %) generated from precursor: 46.5 mol %
[1]; 30 min, water 37° C.
  isomer I (formed) (mol %): 2.7 mol %
  isomer II (unreacted) (mol %): 20.2 mol %
[1]; [10]
  phenylacetaldehyde (mol %) generated from precursor: 0.3 mol %
[1]; Control experiment without addition of water, listed as 2-methylphenyl-5-methyl-2-oxazoline isomer II
  phenylacetaldehyde (mol %) generated from precursor: 0.3 mol %
[1]; [9]
  isomer I (formed) (mol %): 1.8 mol %
  isomer II (unreacted) (mol %): 98.2 mol %

## CC(C)C=O [methylpropanal]
[3]
  Concentration in “release sample” (after addition of saliva): 1103 μg/kg of chocolate
  Concentration in blank sample (prior addition of saliva): 25.4 μg/kg of chocolate
[4]
  release from spiked chocolate after addition of water or saliva (PTR-MS): clearly increased

## CC(C)CC=O [3-methylbutanal]
[3]
  Concentration in “release sample” (after addition of saliva): 4456 μg/kg of chocolate
  Concentration in blank sample (prior addition of saliva): 502 μg/kg of chocolate
[4]
  release from spiked chocolate after addition of water or saliva (PTR-MS): clearly increased
